Experimental data as given in US9907852B2, “Anticancer agent and side-effect-alleviating agent” (National University Corporation University of Toyama, priority 2014, dated 2018).

How the values were obtained:
[1] = system: PANC-1 (ATCC No. CRL-1469) cells
Protocol: After treatment for a period of 18-24 hours, the number of survival cells was counted with a Cell Counting Kit (Dojindo).

[2] = Solubility in water; type: physicochemical
[3] = system: pancreas cancer cell strain PANC-1; conditions: Non-Patent Document 1; cited from earlier work
[4] = system: Miapaca-2 cells; test: Tumor size in model transplanted pancreas cancer, existing anticancer agents combined with Burdock Fruit extract (Test Example 6); type: in vivo, mice; conditions: anticancer agent combined with GBS-01 750 mg/kg oral 5 days a week; about 4 weeks
Protocol: Miapaca-2 cells (5×10^6 cells/200 μl ) were subcutaneously transplanted under the armpit of BALB/cAJcl-nu/nu mice (CLEA Japan, Inc.), and after feeding of about 2 weeks those that grew to the size of about 100 mm^3 or about 600 mm^3 were selected and employed as the subject mice to be treated.
Thus prepared transplanted mice were divided into the respective groups, that is, an untreated group, a group administered an existing anticancer agent as a component having a variety of anticancer activities, a Burdock Fruit extract administered group and a group of combined administration of these agents, and the treatment was continued over about 4 weeks for 5 to 6 species of tumors in the respective groups. The existing anticancer agents used include Carboplatin (CBDCA, Bristol-Myers, peritoneal administration, 60 mg/kg once a week), Doxorubicin (Kyowa Hakko, peritoneal administration, 10 mg/kg twice a week), Oxaliplatin (Yakult, peritoneal administration, 8 mg/kg once a week), Everolimus (Novartis, oral administration, 5 mg/kg 5 times a week) , Bortezomib (Janssen Pharma, peritoneal administration, 1 mg/kg twice a week), Irinotecan (Yakult, peritoneal administration, 25 mg/kg twice a week), and Hydroxychloroquine (Sanofi, peritoneal administration, 100 mg/kg 5 times a week) . As for Burdock Fruit extract, 10% arctigenin-containing Burdock Fruit extract (Kracie Co., GBS-01) was used and orally administered at a dose of 750 mg/kg 5 days a week.
At intervals of 3 to 4 days, the mouse was fixed and the length (L), the minor axis (W) and the height (H) of tumor were measured by a precision digital vernier micrometer, from which the tumor size was calculated using the formula: Tumor size=4/3*pi*L/2*H/2*W/2(pi=3.14)
When the height cannot be measured, the formula: Tumor size=4/3*pi*L/2*(W/2)^2 was used for convenience.

SMILES | Magnification of LD50 decrease [1] | tumor size reduced compared to a single preparation of Burdock Fruit extract [4] [times] | tumor size reduced compared to a single preparation of the anticancer agent [4] | also measured
Cc1cn([C@H]2C[C@H](N=[N+]=[N-])[C@@H](CO)O2)c(=O)[nH]c1=O [AZT] | 4.67 |  |  | 
Nc1nc(OCc2ccccc2)c2nc[nH]c2n1 [Benzylguanine] | 8.24 |  |  | 
C[C@]12CC[C@H](OS(=O)(=O)O)CC1=CC[C@@H]1[C@@H]2CC[C@]2(C)C(=O)CC[C@@H]12 [DHEA-S] | 3.13 |  |  | 
c1cc(-c2cnn3cc(-c4ccc(OCCN5CCCCC5)cc4)cnc23)ccn1 [Dorsomorphin] | 6.14 |  |  | 
CNC(=N)NCCC[C@H](N)C(=O)O [L-NMMA] | 1.72 |  |  | 
CC(C)[C@H](CO)Nc1nc(Nc2cccc(Cl)c2)c2ncn(C(C)C)c2n1 [Purvalanol A] | 1.71 |  |  | 
CCCCOc1cc(CC2CNC(=O)N2)ccc1OC (centres unmarked) [Ro-20-1724] | 1.66 |  |  | 
COc1cc(C[C@H]2C(=O)OC[C@@H]2Cc2ccc(OC)c(OC)c2)ccc1O [arctigenin] |  |  |  | solubility in water [2]: slightly soluble; removal of the viability of tumor cells in a low nutritional state [3]: effective
COc1ccc(C[C@H]2COC(=O)[C@@H]2Cc2ccc(O[C@@H]3O[C@H](CO)[C@@H](O)[C@H](O)[C@H]3O)c(OC)c2)cc1OC [arctiin] |  |  |  | solubility in water [2]: slightly soluble
CC(C)C[C@H](NC(=O)[C@H](Cc1ccccc1)NC(=O)c1cnccn1)B(O)O [bortezomib, Bortezomib] |  | 1.8 | 1.4 times | 
COc1cccc2c1C(=O)c1c(O)c3c(c(O)c1C2=O)C[C@@](O)(C(=O)CO)C[C@@H]3O[C@H]1C[C@H](N)[C@H](O)[C@H](C)O1 [doxorubicin, Doxorubicin] |  | 1.4 | about 1.5 times | 
CO[C@H]1C[C@@H]2CC[C@@H](C)[C@@](O)(O2)C(=O)C(=O)N2CCCC[C@H]2C(=O)O[C@H]([C@H](C)C[C@@H]2CC[C@@H](OCCO)[C@H](OC)C2)CC(=O)[C@H](C)/C=C(\C)[C@@H](O)[C@@H](OC)C(=O)[C@H](C)C[C@H](C)/C=C/C=C/C=C/1C [everolimus, Everolimus] |  | 2.1 | 1.4 times | 
CCN(CCO)CCCC(C)Nc1ccnc2cc(Cl)ccc12 (centres unmarked) [hydroxychloroquine] |  | 1.9 | 2.5 times | 
CCc1c2c(nc3ccc(OC(=O)N4CCC(N5CCCCC5)CC4)cc13)-c1cc3c(c(=O)n1C2)COC(=O)[C@]3(O)CC [irinotecan, Irinotecan] |  | 2.1 | 1.5 times | 
